Consider one compound from patent publication US9724380B2, “Method and compositions for synchronizing time of insemination in gilts” (JBS UNITED ANIMAL HEALTH II LLC, priority 2012, dated 2017).

In the assay the test system is gilts. The experiment in a line: Example 1: ovulation monitored by transrectal ultrasonography after 200 mcg triptorelin gel intravaginally at 96, 120 or 144 h after MATRIX withdrawal. It counts as in vivo, swine. To be noted: 200 mcg T, raw average, PTK 1-07 (rep 3). As for the experimental part: All gilts were individually fed MATRIX® as a top-dress for 14 days at the recommended rate of 15 mg/gilt/day. Gilts were withdrawn from MATRIX® feeding (last top feed in the morning on Day 0) and allotted to treatments. Controls were treated with a 1.2% methylcellulose gel formulation without triptorelin at 96 hours following MATRIX® withdrawal (last top-dress). The remaining gilts received 200 mcg triptorelin, as the acetate, in a 1.2% methylcellulose gel formulation intravaginally at various times after MATRIX® withdrawal. The four treatments were: 1) vehicle gel (VG) treatment at 96 hours after MATRIX® withdrawal, 2) triptorelin gel (TG) treatment at 96 hours after MATRIX® withdrawal, 3) TG treatment at 120 hours after MATRIX® withdrawal and 4) TG treatment at 144 hours after MATRIX® withdrawal. All gilts were monitored for their estrous and ovulatory status as described below. Gilts included in replicate 1 were selected from terminal line commercial production gilts located in grow/finish barns. Sexual maturity, as indicated by one or more estrous periods, was not verified prior to the start of MATRIX® feeding. Gilts included in replicate 2 were selected from a maternal line gilt population. Sexual maturity was verified by at least one estrous period verified and recorded prior to starting MATRIX® feeding.
Triptorelin (pGlu-His-Trp-Ser-Tyr-D-Trp-Leu-Arg-Pro-Gly-NH2) was supplied in the acetate form, from Bachem, Torrance, Calif. (Item H-4075 CGMP grade). Triptorelin gel (200 μg/2 mL) was formulated by Argenta (Auckland, NZ) in a gel composed of Methocel Premium A4000 (Dow Chemical), citrate buffer (pH 5.5), NaCl, methionine and EDTA (as potential stabilizers) and methyl and propyl parabens (as preservatives). Fifty-four milliliters of triptorelin gel (100 mcg triptorelin acetate/mL) was packaged in Amber Borosilicate Glass Serum Vials (610206-50) with a Gray Butyl Pharmaceutical Serum Vial Stopper (73828A-SS) with a Standard Aluminum Seal (SAS20NAT). […] MATRIX® was supplied as the US commercially available form.
The ovulatory status of all gilts was monitored by transrectal ultrasonography. For replicate one, ovulation was monitored two times on Day 5, then three times a day from Day 6 to Day 8. For replicate two, ovulation was monitored three times a day from Day 5 to Day 8. An Aloka 500 ultrasound machine with a 7.5 MHz linear array transducer attached to a fixed-angle PVC stabilizing rod to facilitate insertion into the rectum was used for this purpose. The transducer and PVC rod were coated with a gynecological lubricant and gently inserted into the rectum until the ovaries were visualized, one at a time. The diameters of the three largest follicles were recorded (to the nearest 0.1 mm) at each scanning. A gilt was declared to have ovulated when the number of large follicles (≧6.5 mm) fell to less than 3.
A single 2 mL dose of triptorelin gel or vehicle gel was deposited within approximately 1-2 cm posterior to the cervix with a catheter similar to those used for artificial insemination. The dose was delivered using a standard multi-dose applicator attached to the catheter. A new disposable sheath, which surrounds the catheter, was used for each gilt.
Data were analyzed using the Mixed Models procedures of SAS. Models included main effects of time of treatment following the last feeding of MATRIX®, replicate, and treatment by replicate interaction. Differences between treatments were tested on least squares means estimates using the T test at P<0.05. Data for analysis were tested for assumptions of data normality.

Take `CC(C)C[C@H](NC(=O)[C@@H](Cc1c[nH]c2ccccc12)NC(=O)[C@H](Cc1ccc(O)cc1)NC(=O)[C@H](CO)NC(=O)[C@H](Cc1c[nH]c2ccccc12)NC(=O)[C@H](Cc1c[nH]cn1)NC(=O)[C@@H]1CCC(=O)N1)C(=O)N[C@@H](CCCNC(=N)N)C(=O)N1CCC[C@H]1C(=O)NCC(N)=O` [T, pGlu-His-Trp-Ser-Tyr-D-Trp-Leu-Arg-Pro-Gly-NH2]: the “% of Sows Ovulating” value amounted to 0.0% (128 h post-MATRIX (8 h post-T)); 10.0% (136 h post-MATRIX (16 h post-T)); 30.0% (144 h post-MATRIX (24 h post-T)); 70.0% (152 h post-MATRIX (32 h post-T)); 80.0% (160 h post-MATRIX (40 h post-T)); 90.0% (168 h post-MATRIX (48 h post-T)). For the same compound, the “% of Sows Ovulating” value (176 h post-MATRIX (56 h post-T)) is 100.0%.
